Test results: PubChem BioAssay (NCI)
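Cultured in 96-well plates, cells were exposed to test compound for 48 hours across five concentrations. TGI: concentration producing complete growth inhibition.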

How the values were obtained:
Assay in all cases: growth of human tumour cells (NCI), 48 h
A498 renal = tested on: A498 renal
BT-549 breast = tested on: BT-549 breast
DU-145 prostate = tested on: DU-145 prostate
HCT-15 colon = tested on: HCT-15 colon
HL-60(TB) leukemia = tested on: HL-60(TB) leukemia
HOP-92 NSCLC = tested on: HOP-92 NSCLC
HT29 colon = tested on: HT29 colon
MDA-MB-435 = tested on: MDA-MB-435
NCI-H522 lung = tested on: NCI-H522 lung
OVCAR-4 ovarian = tested on: OVCAR-4 ovarian
OVCAR-8 ovarian = tested on: OVCAR-8 ovarian
RXF 393 renal = tested on: RXF 393 renal
SF-295 CNS = tested on: SF-295 CNS
SK-MEL-28 melanoma = tested on: SK-MEL-28 melanoma
U251 CNS = tested on: U251 CNS
UACC-62 melanoma = tested on: UACC-62 melanoma
COLO 205 colon = tested on: COLO 205 colon

SMILES	TGI (A498 renal) [µM]	TGI (BT-549 breast) [µM]	TGI (DU-145 prostate) [µM]	TGI (HCT-15 colon) [µM]	TGI (HL-60(TB) leukemia) [µM]	TGI (HOP-92 NSCLC) [µM]	TGI (HT29 colon) [µM]	TGI (MDA-MB-435) [µM]	TGI (NCI-H522 lung) [µM]	TGI (OVCAR-4 ovarian) [µM]	TGI (OVCAR-8 ovarian) [µM]	TGI (RXF 393 renal) [µM]	TGI (SF-295 CNS) [µM]	TGI (SK-MEL-28 melanoma) [µM]	TGI (U251 CNS) [µM]	TGI (UACC-62 melanoma) [µM]	TGI (COLO 205 colon) [µM]
CCC[C@H](C)C[C@H](C)C[C@H](C)/C=C(\C)[C@@H](O)[C@@H](C)C(=O)CC	42.6	44.1	43.4	41.7	36.2	38.3	37	35.7	36.4	36.8	39.4	40	37.9	33.4	44.7	33.8	–
CCOC(=O)c1ccc(C(=O)C(C(C)=O)C(=O)OC(C)(C)C)[nH]1 (configuration not stated)	> 100	> 100	> 100	> 100	> 100	–	> 100	> 100	> 100	> 100	> 100	> 100	> 100	> 100	> 100	> 100	> 100
CCN(c1cccc(NC(=S)Nc2ccccc2N(CC)c2cc(-c3ccccc3)no2)c1)c1cc(-c2ccccc2)no1	–	> 100	> 100	> 100	> 100	> 100	> 100	> 100	> 100	> 100	> 100	> 100	> 100	> 100	> 100	> 100	> 100
Fc1ccccc1C1SCc2nc3cc4ccccc4cc3n21 (configuration not stated)	–	> 100	> 100	> 100	> 100	–	> 100	> 100	> 100	> 100	> 100	80.1	> 100	> 100	> 100	> 100	> 100
Cc1ccc2nc(NC(=O)/C(Cc3nc4ccc(Cl)cc4[nH]c3=O)=N\NC(C)(C)C)sc2c1	> 100	> 100	> 100	> 100	> 100	> 100	> 100	> 100	–	> 100	> 100	> 100	> 100	> 100	> 100	> 100	> 100
COc1ccc2oc(=N)c(C(=O)Nc3ccccn3)cc2c1	> 100	> 100	> 100	> 100	> 100	> 100	> 100	> 100	–	> 100	> 100	> 100	–	> 100	> 100	> 100	> 100
CCOc1cc(NC(C)=O)ccc1C(=O)NN1C(=O)C(Cl)C1c1ccco1 (configuration not stated)	30.8	30.4	31.1	46.6	43.4	35.3	38.8	32.3	25.5	33.3	> 100	29	30.5	63.5	–	25.6	38.3
C/C(=C/CC[C@]1(CO)CC[C@]2(CO)[C@H](CC[C@@H]3[C@@]4(C)CC[C@H](OC5OCC(O)C(O)C5OC5OC(CO)C(O)C(O)C5O)C(C)(C)[C@@H]4CC[C@]32C)[C@H]1O)CO (some centres not stated)	> 100	> 100	> 100	–	> 100	> 100	> 100	> 100	> 100	> 100	> 100	> 100	> 100	> 100	> 100	> 100	> 100
CNc1ccc(N)cc1C(=O)N1CCC[C@H]1CO	> 100	> 100	> 100	> 100	> 100	–	> 100	> 100	> 100	> 100	> 100	> 100	> 100	> 100	> 100	> 100	> 100
COc1cc(C(c2ccc3c(c2)OCO3)N2C(=O)CCC2C(=O)O)cc(OC)c1OC (configuration not stated)	> 100	> 100	> 100	> 100	> 100	> 100	> 100	> 100	> 100	> 100	> 100	–	> 100	> 100	> 100	> 100	> 100
CC(=O)OCC1OC(n2c(=O)[nH]c(=O)c3sccc32)C(Br)C1OC(C)=O (configuration not stated)	> 100	> 100	> 100	> 100	> 100	> 100	> 100	> 100	> 100	> 100	> 100	> 100	> 100	> 100	> 100	–	> 100
CC(C)CN=C(N)N=C(N)N	–	> 100	> 100	> 100	> 100	> 100	> 100	> 100	> 100	> 100	> 100	> 100	> 100	> 100	> 100	> 100	> 100
Cc1nc(-c2ccc(N=Cc3ccc(N(CCOS(C)(=O)=O)CCOS(C)(=O)=O)cc3C)cc2)cs1	11.4	> 100	> 100	> 100	47.3	–	> 100	> 100	> 100	> 100	> 100	53.9	> 100	> 100	> 100	> 100	> 100
CC(C)C1=CC23CCC4C(C)(C(=O)O)CCCC4(C)C2CC1C1C(=O)N(c2ccc(C(=O)O)cc2)C(=O)C13 (configuration not stated)	–	> 100	> 100	> 100	> 100	> 100	> 100	> 100	> 100	> 100	> 100	> 100	> 100	> 100	> 100	> 100	> 100
